# Laboratory results from patent US9645147B2, “Recombinant polypeptide construct comprising Plasmodium falciparum circumsporozoite protein HLA class I restricted T-cell epitopes” (priority 2013, dated 2017).
# “Also recorded” adds a separate entry of the source. Peptide text beside a SMILES is read from it.
# Tests used:
# Type in all cases: cell-based, human
# [1] = system: PBMC depleted of T-cell subsets; assay: ELISpot IFN-γ after T-cell subset depletion (CD4+ or CD8+ Dynabeads, mock control); details: for confirmation as recalling CD8+ T cell responses: ELISpot depletion and ICS studies; for CD4+ depl. sfc/m: after CD4+ T cell depletion; for CD4+ depl. (%) percent change in ELISpot activity: after CD4+ T cell depletion vs control depletion; for CD8+ depl. sfc/m: after CD8+ T cell depletion; for CD8+ depl. (%) percent change in ELISpot activity: after CD8+ T cell depletion vs control depletion; for Control dept. sfc/m: mock (control) depletion; for percent reduction of ELISpot response after CD8+ T cell depletion: text summary over the four volunteers of Table 6
# From the text: For characterization of ELISpot IFN-γ-producing cells by T-cell subset depletions PBMC were depleted of T-cell subsets using anti-human CD4+ or anti-CD8+ coated Dynabeads M-450 (Dynal, Great Neck, N.Y.) following the manufacturer's instructions. Mock depletion was done with Dynabeads coated with sheep anti-mouse IgG. Flow cytometry confirmed that T-cell subset depletions were >99% in all experiments. Data are presented as the spot-forming cells/million (sfc/m) and percent decrease or increase in activity after depletion.
# To further evaluate the predicted epitopes, ELISpot depletion assays were performed using PBMC from four volunteers stimulated with six predicted and tested epitopes. CD8+ T cell depletion reduced responses to Cp1 and Cp9 by 82%100%.
# CD8+ T cells = assay: Intracellular cytokine staining (ICS), IFN-γ, CD8+ population; details: for ICS CD8+ T cell recall responses (in words): ICS assays, volunteers of Table 6; for CD8+ % (per cent of CD8+ T cells expressing IFN-γ): ICS, positive >0.03%
# Method: (§1) Intracellular cytokine staining (ICS) was performed as published previously (Stewart, et al, Infect. Immun., 75: 2283-90 (2007)). Cryopreserved PBMC were thawed, washed, and resuspended at 10×10^6 cells per mL in complete medium. Peptides were used at 10 μg/mL and costimulatory antibodies anti-CD28 and […] (BD Bioscience, San Jose, Calif.) were used at 1 μg/mL. Stimulants were added to cells and incubated at 37° C. with 5% CO2 for 2 hours. Cells were stained with anti-CD3, anti-CD4, anti-CD8, anti-IFN-γ, anti-TNFα, and anti-IL2 and the entire available sample was acquired on a BD LSRII using FACSDiVa (BD Bioscience) software. Data were analyzed using FlowJo Software (Treestar, Inc.). The gating strategy involved progressively measuring total cells; viable cells; lymphocytes; T cells; CD4+ or CD8+ populations; and finally a specific cell type expressing a specific cytokine. Results were transferred to Prism (GraphPad) for graphing and statistical analysis. Data for peptides were corrected for media responses. A positive response was greater than the medium controls+3 standard deviations (0.03%).
# CD4+ T cells = assay: Intracellular cytokine staining (ICS), IFN-γ, CD4+ population; details: for ICS CD4+ T cell recall responses (in words): ICS assays, volunteers of Table 6; for CD4+ % (per cent of CD4+ T cells expressing IFN-γ): ICS, positive >0.03%
# Method: as §1
# [2] = system: PBMC from volunteers immunized with Ad-CA or Ad-C; assay: IFN-γ ELISpot assay with cryopreserved PBMC of immunized volunteers; details: for Epitope sfc/m: Table 4; for ELISpot response to synthesized epitope (in words): volunteers, positive = p<0.05, at least doubling and at least ten sfc over negative control
# Method: Previous studies have confirmed that recall-T cell responses, as assayed by ELISpot, are detected using cryopreserved PBMCs although such responses are generally of a lower magnitude than fresh cells (Sedegah, et al., Malar J., 9: 241 (2011)).
# The positive control was commercially obtained Class I Peptide Pool Plus (Anaspec, USA). Negative control was media with all supplements but no antigen-specific stimulant.
# Throughout the studies, IFN-γ ELISpot assays were conducted as previously described (Sedegah, et al., Malar J., 9: 241 (2011); Wang, et al., PNAS (USA), 98: 10817-22 (2001)). Cryopreserved PBMC were suspended in 100 μL complete medium and stimulated with CSP peptides in 100 μL of complete medium at a final concentration of 10 μg/mL of each peptide tested (Wang, et al., PNAS (USA), 98: 10817-22 (2001)).
# Cultures were incubated for 36 hours at 37° C., 5% CO2. Depending on availability of cells, each PBMC sample was assayed in duplicate, triplicate, or quadruplicate and the number of IFN-γ-secreting spot forming cells (sfc) was counted using an automated ELISpot reader (AID, GmbH, Germany). In duplicate assays, all values were used in analysis. […] The mean number of sfcs obtained in negative control wells was subtracted from the value of each test well from the same sample. Negative counts generated by this background subtraction were converted to zero. The mean number of spots of the test sample was then calculated and expressed as spot forming cells/million (sfc/m). A positive response was defined as a significant difference (p=<0.05) between average of the number of spot forming cells (sfc) in test wells and the average of negative control wells (Student's two tailed t-test), and at least a doubling of sfc in test wells relative to negative control wells, and a difference of at least ten sfc between test and negative control wells (Sedegah, et al., PLoS One, 6: e24586 (2011)).
# [3] = volunteer 37 (Ad-C), synthesized epitope, second assay (second value of the cell)
# [4] = volunteer 37 (Ad-C), synthesized epitope, single value or first of two assays
# [5] = volunteer 40 (Ad-C), synthesized epitope, first of two assays
# [6] = volunteer 40 (Ad-C), synthesized epitope, second assay (second value of the cell)
Compound,confirmation as recalling CD8+ T cell responses [1],CD4+ depl. sfc/m ([1]; V40) [sfc/m],CD4+ depl. (%) percent change in ELISpot activity ([1]; V40) [%],CD8+ depl. sfc/m ([1]; V40) [sfc/m],CD8+ depl. (%) percent change in ELISpot activity ([1]; V40) [%],Control dept. sfc/m ([1]; V40) [sfc/m],CD4+ depl. sfc/m ([1]; V156) [sfc/m],CD4+ depl. (%) percent change in ELISpot activity ([1]; V156),CD8+ depl. sfc/m ([1]; V156) [sfc/m],CD8+ depl. (%) percent change in ELISpot activity ([1]; V156) [%],Control dept. sfc/m ([1]; V156) [sfc/m],ICS CD8+ T cell recall responses (in words) (CD8+ T cells),CD8+ % (per cent of CD8+ T cells expressing IFN-γ) (CD8+ T cells; V40) [%],CD8+ % (per cent of CD8+ T cells expressing IFN-γ) (CD8+ T cells; V156) [%],ICS CD4+ T cell recall responses (in words) (CD4+ T cells),CD4+ % (per cent of CD4+ T cells expressing IFN-γ) (CD4+ T cells; V40) [%],CD4+ % (per cent of CD4+ T cells expressing IFN-γ) (CD4+ T cells; V156) [%],"Epitope sfc/m [2, 5] [sfc/m]","Epitope sfc/m [2, 6] [sfc/m]",ELISpot response to synthesized epitope (in words) [2],other results
CC(C)C[C@H](NC(=O)[C@H](C)NC(=O)[C@H](CCC(=O)O)NC(=O)[C@@H](NC(=O)[C@H](Cc1ccccc1)NC(=O)[C@H](CC(C)C)NC(=O)[C@H](Cc1ccccc1)NC(=O)[C@@H](N)CO)C(C)C)C(=O)N[C@@H](Cc1ccccc1)C(=O)O [Epitope E20] (H-SFLFVEALF-OH; N-terminus and C-terminus assumed),confirmed as recalling CD8+ T cell responses,226,−11,15,−94,254,273,+28%,29,−86,213,positive,0.37,0.25,negative,0.04,0.01,313,197,moderately positive; also recorded: demonstrated activity,"Epitope sfc/m [2, 3]: 53, 53 sfc/m; Epitope sfc/m [2, 4]: 53, 53 sfc/m; Epitope sfc/m ([2]; volunteer 68 (Ad-C), synthesized 8-10mer epitope): 34 sfc/m; Epitope sfc/m ([2]; volunteer 156 (Ad-CA), synthesized 8-10mer epitope): 240 sfc/m"
CC(C)C[C@H](NC(=O)[C@H](C)NC(=O)[C@H](CCC(=O)O)NC(=O)[C@@H](NC(=O)[C@@H](N)Cc1ccccc1)C(C)C)C(=O)N[C@@H](Cc1ccccc1)C(=O)N[C@@H](CCC(N)=O)C(=O)N[C@@H](CCC(=O)O)C(=O)N[C@@H](Cc1ccc(O)cc1)C(=O)O [Epitope E2],confirmed as recalling CD8+ T cell responses,,,,,,,,,,,positive,,,negative,,,,,active; also recorded: demonstrated activity,"CD4+ depl. sfc/m ([1]; V69): 254 sfc/m; CD4+ depl. (%) percent change in ELISpot activity ([1]; V69): −15%; CD8+ depl. sfc/m ([1]; V69): 8 sfc/m; CD8+ depl. (%) percent change in ELISpot activity ([1]; V69): −97%; Control dept. sfc/m ([1]; V69): 296 sfc/m; CD8+ % (per cent of CD8+ T cells expressing IFN-γ) (CD8+ T cells; V69): 0.48%; CD4+ % (per cent of CD4+ T cells expressing IFN-γ) (CD4+ T cells; V69): 0.00%; Epitope sfc/m ([2]; volunteer 69 (Ad-C), synthesized 8-10mer epitope): 268 sfc/m; Epitope sfc/m ([2]; volunteer 127 (Ad-CA), synthesized 8-10mer epitope): 89 sfc/m"
CC[C@H](C)[C@H](NC(=O)[C@@H](N)CC(C)C)C(=O)N[C@@H](CCSC)C(=O)N[C@H](C(=O)N[C@@H](CC(C)C)C(=O)N[C@@H](CO)C(=O)N[C@@H](Cc1ccccc1)C(=O)N[C@@H](CC(C)C)C(=O)N[C@@H](Cc1ccccc1)C(=O)O)C(C)C [Epitope E17a] (H-LIMVLSFLF-OH; N-terminus and C-terminus assumed),confirmed as recalling CD8+ T cell responses,210,−11,23,−90,236,264,−18%,85,−82,307,positive,0.54,0.26,negative,0.02,0.01,290,166,recognized; also recorded: positive; also recorded: demonstrated activity,"Epitope sfc/m [2, 3]: 38 sfc/m; Epitope sfc/m [2, 4]: 55 sfc/m"
"SVSSFLFVEA (listed as Plasmodium falciparum) [Epitope E19, CSP aa 9-18]",confirmed as recalling CD8+ T cell responses,,,,,,,,,,,weakly positive,,,,,,,,moderately active; also recorded: demonstrated activity,"CD4+ depl. sfc/m ([1]; V125): 17 sfc/m; CD4+ depl. (%) percent change in ELISpot activity ([1]; V125): −78%; CD8+ depl. sfc/m ([1]; V125): 72 sfc/m; CD8+ depl. (%) percent change in ELISpot activity ([1]; V125): −9%; Control dept. sfc/m ([1]; V125): 79 sfc/m; percent reduction of ELISpot response after CD8+ T cell depletion [1]: 9%; CD8+ % (per cent of CD8+ T cells expressing IFN-γ) (CD8+ T cells; V125): 0.06%; CD4+ % (per cent of CD4+ T cells expressing IFN-γ) (CD4+ T cells; V125): 0.02%; Epitope sfc/m ([2]; volunteer 125 (Ad-CA), synthesized 8-10mer epitope): 33 sfc/m"
VFNVVNSSI [Epitope E13a],confirmed as recalling CD8+ T cell responses,43,−50,38,−56,86,,,,,,positive,0.12,,negative,0.01,,104,72,demonstrated activity,percent reduction of ELISpot response after CD8+ T cell depletion [1]: 56%
